Measurements: patent publication US7078022B2, “Sunscreen compositions and methods of use thereof” (Avon Products, Inc., priority 2002, dated 2006)
Counter-ions that a name gives are not always drawn.

Columns and labels:
skin = test: Skin elasticity and wrinkling; conditions: no method or data given
[1] = UV spectrum (UV absorbance, FIG. 1); assay type: physicochemical
Description: FIG. 1 is a Ultraviolet (UV) spectrum showing the UV absorbance of 3-[2-(4-diethylaminophenyl)-2-oxoethyl]thiazolium salt.
FIG. 1 provides the UV spectrum for 3-[2-(4-diethylaminophenyl)-2-oxoethyl]thiazolium salt. […] The maximum UV absorption occurs at a wavelength of 350 nm.

wavelength of maximum UV absorption [1]: 350 nm
Structure (SMILES): CCN(CC)c1ccc(C(=O)C[n+]2ccsc2)cc1 [3-[2-(4-diethylaminophenyl)-2-oxoethyl]thiazolium salt]
elasticity of skin (skin): improve the elasticity | wrinkling of skin (skin): reduce the wrinkling of skin | UV absorbing properties ([1]; UV-A range): excellent UV absorber, particularly in the UV-A range
